US10040790B2, “Bicyclic heterocycles as FGFR inhibitors” (Incyte Corporation, priority 2013, dated 2018)

Columns and labels:
Assay type in all cases: biochemical
FGFR1 = FGFR1 (Homo sapiens (Human), UniProt P11362); test: FGFR Enzymatic Assay (FRET peptide phosphorylation), FGFR1; conditions: ATP 210 μM, enzyme 0.02 nM
Procedure: (§1) The inhibitor potency of the exemplified compounds was measured in an enzyme assay that measures peptide phosphorylation using FRET measurements to detect product formation. Inhibitors were serially diluted in DMSO and a volume of 0.5 μL was transferred to the wells of a 384-well plate. For FGFR3, a 10 μL volume of FGFR3 enzyme (Millipore) diluted in assay buffer (50 mM HEPES, 10 mM MgCl2, 1 mM EGTA, 0.01% Tween-20, 5 mM DTT, pH 7.5) was added to the plate and pre-incubated for 5-10 minutes. Appropriate controls (enzyme blank and enzyme with no inhibitor) were included on the plate. The assay was initiated by the addition of a 10 μL solution containing biotinylated EQEDEPEGDYFEWLE peptide substrate (SEQ ID NO: 1) and ATP (final concentrations of 500 nM and 140 μM respectively) in assay buffer to the wells. The plate was incubated at 25° C. for 1 hr. The reactions were ended with the addition of 10 μL/well of quench solution (50 mM Tris, 150 mM NaCl, 0.5 mg/mL BSA, pH 7.8; 30 mM EDTA with Perkin Elmer Lance Reagents at 3.75 nM Eu-antibody PY20 and 180 nM APC-Streptavidin). The plate was allowed to equilibrate for ˜1 hr before scanning the wells on a PheraStar plate reader (BMG Labtech).
(§2) FGFR1 and FGFR2 were measured under equivalent conditions with the following changes in enzyme and ATP concentrations: FGFR1, 0.02 nM and 210 μM, respectively and FGFR2, 0.01 nM and 100 μM, respectively. The enzymes were purchased from Millipore or Invitrogen.
(§3) GraphPad prism3 was used to analyze the data. The IC50 values were derived by fitting the data to the equation for a sigmoidal dose-response with a variable slope. Y=Bottom+(Top−Bottom)/(1+10^((Log IC50−X)*HillSlope)) where X is the logarithm of concentration and Y is the response.

FGFR2 = FGFR2 (Homo sapiens (Human), UniProt P21802); test: FGFR Enzymatic Assay (FRET peptide phosphorylation), FGFR2; conditions: ATP 100 μM, enzyme 0.01 nM
Chain of FGFR2 (P21802 22-821): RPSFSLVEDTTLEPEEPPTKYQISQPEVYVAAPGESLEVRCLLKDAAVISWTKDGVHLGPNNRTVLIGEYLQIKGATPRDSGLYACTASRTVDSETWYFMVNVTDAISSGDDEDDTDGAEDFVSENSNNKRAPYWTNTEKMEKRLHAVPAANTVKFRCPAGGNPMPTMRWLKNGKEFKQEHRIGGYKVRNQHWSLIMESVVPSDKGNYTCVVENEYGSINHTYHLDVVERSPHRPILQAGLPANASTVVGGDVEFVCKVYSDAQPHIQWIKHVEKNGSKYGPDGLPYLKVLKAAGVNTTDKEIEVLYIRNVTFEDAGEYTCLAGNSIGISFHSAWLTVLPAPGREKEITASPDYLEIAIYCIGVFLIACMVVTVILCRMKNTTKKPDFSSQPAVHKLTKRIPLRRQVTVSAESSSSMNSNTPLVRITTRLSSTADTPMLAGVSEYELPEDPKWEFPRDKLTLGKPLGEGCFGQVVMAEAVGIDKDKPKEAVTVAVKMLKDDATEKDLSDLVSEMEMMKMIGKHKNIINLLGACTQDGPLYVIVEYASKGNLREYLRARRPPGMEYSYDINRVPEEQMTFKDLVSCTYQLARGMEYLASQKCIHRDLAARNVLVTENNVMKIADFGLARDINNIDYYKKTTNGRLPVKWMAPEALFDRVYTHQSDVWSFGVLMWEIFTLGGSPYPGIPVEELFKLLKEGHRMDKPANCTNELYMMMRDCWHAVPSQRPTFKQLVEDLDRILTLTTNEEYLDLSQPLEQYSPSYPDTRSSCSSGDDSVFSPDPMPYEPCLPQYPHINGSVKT
Procedure: as §1, §2, §3

FGFR3 = FGFR3 (Homo sapiens (Human), UniProt P22607); test: FGFR Enzymatic Assay (FRET peptide phosphorylation), FGFR3; conditions: ATP 140 μM
Chain of FGFR3 (P22607 23-806): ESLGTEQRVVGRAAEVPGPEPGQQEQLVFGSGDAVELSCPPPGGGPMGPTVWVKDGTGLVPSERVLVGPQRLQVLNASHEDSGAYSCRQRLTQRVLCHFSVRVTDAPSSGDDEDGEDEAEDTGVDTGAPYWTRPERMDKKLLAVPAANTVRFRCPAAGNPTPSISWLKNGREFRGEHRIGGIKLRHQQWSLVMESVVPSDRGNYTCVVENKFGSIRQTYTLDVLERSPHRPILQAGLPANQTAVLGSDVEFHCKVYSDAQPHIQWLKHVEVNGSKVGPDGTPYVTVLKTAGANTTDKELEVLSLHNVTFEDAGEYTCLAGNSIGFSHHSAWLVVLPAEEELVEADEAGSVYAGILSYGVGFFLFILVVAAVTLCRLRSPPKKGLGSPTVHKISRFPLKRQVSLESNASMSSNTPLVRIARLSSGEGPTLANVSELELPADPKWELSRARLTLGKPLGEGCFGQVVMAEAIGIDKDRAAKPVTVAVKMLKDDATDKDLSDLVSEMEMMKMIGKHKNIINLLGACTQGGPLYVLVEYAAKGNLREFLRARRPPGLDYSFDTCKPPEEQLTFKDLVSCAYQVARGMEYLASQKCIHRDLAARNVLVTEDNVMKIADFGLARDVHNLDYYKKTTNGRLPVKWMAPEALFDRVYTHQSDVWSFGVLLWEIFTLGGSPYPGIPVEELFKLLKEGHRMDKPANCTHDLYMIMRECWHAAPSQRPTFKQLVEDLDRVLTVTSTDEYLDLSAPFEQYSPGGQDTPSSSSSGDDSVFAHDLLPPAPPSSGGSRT
Procedure: as §1, §3

Chain of FGFR1 (P11362 22-822): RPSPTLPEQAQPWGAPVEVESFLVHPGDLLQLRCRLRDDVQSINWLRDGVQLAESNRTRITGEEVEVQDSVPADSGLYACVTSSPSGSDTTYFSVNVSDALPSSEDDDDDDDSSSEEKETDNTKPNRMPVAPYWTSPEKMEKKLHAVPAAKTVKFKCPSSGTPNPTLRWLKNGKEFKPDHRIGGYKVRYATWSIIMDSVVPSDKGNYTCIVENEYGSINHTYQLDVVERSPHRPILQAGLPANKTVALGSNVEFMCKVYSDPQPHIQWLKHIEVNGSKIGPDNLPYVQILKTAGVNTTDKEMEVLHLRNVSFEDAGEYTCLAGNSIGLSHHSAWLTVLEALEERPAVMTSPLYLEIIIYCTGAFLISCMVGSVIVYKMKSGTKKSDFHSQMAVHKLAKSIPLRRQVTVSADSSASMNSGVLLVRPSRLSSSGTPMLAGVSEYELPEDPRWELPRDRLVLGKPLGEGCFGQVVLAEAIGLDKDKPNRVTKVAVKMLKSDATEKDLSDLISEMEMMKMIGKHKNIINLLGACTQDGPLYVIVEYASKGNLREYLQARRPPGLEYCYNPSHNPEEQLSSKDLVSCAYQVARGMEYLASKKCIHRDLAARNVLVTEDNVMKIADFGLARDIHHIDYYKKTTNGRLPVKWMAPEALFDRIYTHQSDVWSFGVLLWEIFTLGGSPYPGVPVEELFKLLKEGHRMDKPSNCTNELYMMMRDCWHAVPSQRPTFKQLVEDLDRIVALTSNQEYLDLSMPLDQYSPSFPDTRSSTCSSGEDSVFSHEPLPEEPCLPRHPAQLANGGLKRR

IC50 (FGFR1)	IC50 (FGFR2)	IC50 (FGFR3)	SMILES
< 100 nM	< 100 nM	< 100 nM	COc1cc(OC)c(F)c(N2Cc3cnc(NC4CC(F)(F)C4)cc3C3(CC3)C2=O)c1F [Example 43, 2′-(2,6-difluoro-3,5-dimethoxyphenyl)-6′-(3,3-difluorocyclobutylamino)-1′H-spiro[cyclopropane-1,4′-[2,7]naphthyridin]-3′(2′H)-one]
< 100 nM	< 100 nM	< 100 nM	COc1cc(OC)c(F)c(N2Cc3cnc(NC4CC4)cc3C3(CC3)C2=O)c1F [Example 41, 6′-(cyclopropylamino)-2′-(2,6-difluoro-3,5-dimethoxyphenyl)-1′H-spiro[cyclopropane-1,4′-[2,7]naphthyridin]-3′(2′H)-one]
< 100 nM	< 100 nM	< 100 nM	COc1cc(OC)c(F)c(N2Cc3cnc(NC4CCOCC4)cc3C3(CC3)C2=O)c1F [Example 26, 2′-(2,6-difluoro-3,5-dimethoxyphenyl)-6′-(tetrahydro-2H-pyran-4-ylamino)-1′,2′-dihydro-3′H-spiro[cyclopropane-1,4′-[2,7]naphthyridin]-3′-one]
< 100 nM	< 100 nM	< 100 nM	COc1cc(OC)c(F)c(N2Cc3cnc(NC[C@H](C)O)cc3C3(CC3)C2=O)c1F [Example 27, (S)-2′-(2,6-difluoro-3,5-dimethoxyphenyl)-6′-(2-hydroxypropylamino)-1′H-spiro[cyclopropane-1,4′-[2,7]naphthyridin]-3′(2′H)-one]
< 100 nM	< 100 nM	< 100 nM	CNc1cc2c(cn1)CN(c1c(F)c(OC)cc(OC)c1F)C(=O)C21CC1 [Example 25, 2′-(2,6-difluoro-3,5-dimethoxyphenyl)-6′-(methylamino)-1′,2′-dihydro-3′H-spiro[cyclopropane-1,4′-[2,7]naphthyridin]-3′-one]
< 100 nM	< 100 nM	< 100 nM	COc1cc(OC)c(F)c(N2Cc3cnc(NC[C@@H]4CCCO4)cc3C3(CC3)C2=O)c1F [Example 35, (S)-2′-(2,6-difluoro-3,5-dimethoxyphenyl)-6′-((tetrahydrofuran-2-yl)methylamino)-1′H-spiro[cyclopropane-1,4′-[2,7]naphthyridin]-3′(2′H)-one]
< 100 nM	< 100 nM	< 100 nM	COC(=O)Nc1cc2c(cn1)CN(c1c(F)c(OC)cc(OC)c1F)C(=O)C21CC1 [Example 31, methyl 2′-(2,6-difluoro-3,5-dimethoxyphenyl)-3′-oxo-2′,3′-dihydro-1′H-spiro[cyclopropane-1,4′-[2,7]naphthyridine]-6′-ylcarbamate]

The remaining lines, values behind:

SMILES	IC50 (FGFR1)	IC50 (FGFR2)	IC50 (FGFR3)
COc1cc(OC)c(F)c(N2Cc3cnc(N)c(-c4cccnc4)c3N(C)C2=O)c1F [Example 16, 7-amino-3-(2,6-difluoro-3,5-dimethoxyphenyl)-1-methyl-8-pyridin-3-yl-3,4-dihydropyrido[4,3-d]pyrimidin-2(1H)-one]	< 100 nM	< 100 nM	< 100 nM
COc1cc(OC)c(F)c(N2Cc3cnc(N)c(Cl)c3N(C)C2=O)c1F [Example 54, 7-amino-8-chloro-3-(2,6-difluoro-3,5-dimethoxyphenyl)-1-methyl-3,4-dihydropyrido[4,3-d]pyrimidin-2(1H)-one]	< 100 nM	< 100 nM	< 100 nM
COc1cc(OC)c(F)c(N2Cc3cnc(N)c(OCCN4CCN(C)CC4)c3N(C)C2=O)c1F [Example 6, 7-amino-3-(2,6-difluoro-3,5-dimethoxyphenyl)-1-methyl-8-[2-(4-methylpiperazin-1-yl)ethoxy]-3,4-dihydropyrido[4,3-d]pyrimidin-2(1H)-one]	< 100 nM	< 100 nM	< 100 nM
COc1cc(OC)c(F)c(N2Cc3cnc(N)c(C#N)c3N(CC3CC3)C2=O)c1F [Example 49, 7-amino-1-(cyclopropylmethyl)-3-(2,6-difluoro-3,5-dimethoxyphenyl)-2-oxo-1,2,3,4-tetrahydropyrido[4,3-d]pyrimidine-8-carbonitrile]	< 100 nM	< 100 nM	< 100 nM
COc1cc(OC)c(F)c(N2Cc3cnc(N)c(C#N)c3N(C)C2=O)c1F [Example 3, 7-amino-3-(2,6-difluoro-3,5-dimethoxyphenyl)-1-methyl-2-oxo-1,2,3,4-tetrahydropyrido-[4,3-d]pyrimidine-8-carbonitrile]	< 100 nM	< 100 nM	< 100 nM
COc1cc(OC)c(F)c(N2Cc3cnc(N)c(C#N)c3N(c3ccccc3F)C2=O)c1F [Example 53, 7-amino-3-(2,6-difluoro-3,5-dimethoxyphenyl)-1-(2-fluorophenyl)-2-oxo-1,2,3,4-tetrahydropyrido[4,3-d]pyrimidine-8-carbonitrile]	< 100 nM	< 100 nM	< 100 nM
COc1cc(OC)c(F)c(N2Cc3cnc(N)c(Cc4ccccc4)c3N(C)C2=O)c1F [Example 20, 7-amino-8-benzyl-3-(2,6-difluoro-3,5-dimethoxyphenyl)-1-methyl-3,4-dihydropyrido[4,3-d]pyrimidin-2(1H)-one]	< 100 nM	< 100 nM	< 100 nM
COc1cc(OC)c(F)c(N2Cc3cnc(N[C@H](C)c4ccccc4)cc3C3(CC3)C2=O)c1F [Example 38, (R)-2′-(2,6-difluoro-3,5-dimethoxyphenyl)-6′-(1-phenylethylamino)-1′H-spiro[cyclopropane-1,4′-[2,7]naphthyridin]-3′(2′H)-one]	< 100 nM	< 100 nM	< 100 nM
COc1cc(OC)c(F)c(N2Cc3cnc(N)c(C#N)c3N(C3CCCC3)C2=O)c1F [Example 50, 7-amino-1-cyclopentyl-3-(2,6-difluoro-3,5-dimethoxyphenyl)-2-oxo-1,2,3,4-tetrahydropyrido[4,3-d]pyrimidine-8-carbonitrile]	< 100 nM	< 100 nM	< 100 nM
COc1cc(OC)c(F)c(N2Cc3cnc(NCCN4CCN(C)CC4)cc3C3(CC3)C2=O)c1F [Example 30, 2′-(2,6-difluoro-3,5-dimethoxyphenyl)-6′-(2-(4-methylpiperazin-1-yl)ethylamino)-1′H-spiro[cyclopropane-1,4′-[2,7]naphthyridin]-3′(2′H)-one]	< 100 nM	< 100 nM	< 100 nM
COc1cc(OC)c(F)c(N2Cc3cnc(N)c(-c4ccncc4)c3N(C)C2=O)c1F [Example 17, 7-amino-3-(2,6-difluoro-3,5-dimethoxyphenyl)-1-methyl-8-pyridin-4-yl-3,4-dihydropyrido[4,3-d]pyrimidin-2(1H)-one]	< 100 nM	< 100 nM	< 100 nM
COc1cc(OC)c(F)c(N2Cc3cnc(N)c(C4=CCOCC4)c3N(C)C2=O)c1F [Example 21, 7-amino-3-(2,6-difluoro-3,5-dimethoxyphenyl)-8-(3,6-dihydro-2H-pyran-4-yl)-1-methyl-3,4-dihydropyrido[4,3-d]pyrimidin-2(1H)-one]	< 100 nM	< 100 nM	< 100 nM
COc1cc(OC)c(F)c(N2Cc3cnc(NCCN4CCOCC4)cc3C3(CC3)C2=O)c1F [Example 23, 2′-(2,6-difluoro-3,5-dimethoxyphenyl)-6′-[(2-morpholin-4-ylethyl)amino]-1′,2′-dihydro-3′H-spiro[cyclopropane-1,4′-[2,7]naphthyridin]-3′-one]	< 100 nM	< 100 nM	< 100 nM
COc1cc(OC)c(F)c(N2Cc3cnc(N)c(-c4ccnn4C)c3N(C)C2=O)c1F [Example 13, 7-amino-3-(2,6-difluoro-3,5-dimethoxyphenyl)-1-methyl-8-(1-methyl-1H-pyrazol-5-yl)-3,4-dihydropyrido[4,3-d]pyrimidin-2(1H)-one]	< 100 nM	< 100 nM	< 100 nM
COc1cc(OC)c(F)c(N2Cc3cnc(N)c(-c4cn[nH]c4)c3N(C)C2=O)c1F [Example 12, 7-amino-3-(2,6-difluoro-3,5-dimethoxyphenyl)-1-methyl-8-(1H-pyrazol-4-yl)-3,4-dihydro-pyrido[4,3-d]pyrimidin-2(1H)-one]	< 100 nM	< 100 nM	< 100 nM
COc1cc(OC)c(F)c(N2Cc3cnc(N)c(-c4cnn(CCO)c4)c3N(C)C2=O)c1F [Example 10, 7-amino-3-(2,6-difluoro-3,5-dimethoxyphenyl)-8-[1-(2-hydroxyethyl)-1H-pyrazol-4-yl]-1-methyl-3,4-dihydropyrido[4,3-d]pyrimidin-2(1H)-one]	< 100 nM	< 100 nM	< 100 nM
